Values of other authors as cited in patent US20250121105A1, “METHODS FOR TREATING CANCER USING COMBINATIONS OF PARP INHIBITORS AND ANTIBODY RADIOCONJUGATES” (ACTINIUM PHARMACEUTICALS, INC., priority 2019, published 2025).
Where two headings read alike, the source gives them in different places.

Key:
[1] = tested on: glioblastoma cancer cells; settings: veliparib (ABT-888) plus ionizing radiation (IR)
[2] = order of magnitude only, stated in the background

SMILES | IC50 values (PARP; [2]) | IC50 values (PARP) | sensitivity of glioblastoma cancer cells to PARPi with ionizing radiation [1]
Cn1ncnc1[C@H]1c2n[nH]c(=O)c3cc(F)cc(c23)N[C@@H]1c1ccc(F)cc1 [talazoparib] | picomolar range | – | –
C[C@]1(c2nc3c(C(N)=O)cccc3[nH]2)CCCN1 [veliparib] | – | nanomolar range | IR sensitizes glioblastoma cancer cells to PARPi
CNCc1ccc(-c2[nH]c3cc(F)cc4c3c2CCNC4=O)cc1 [rucaparib] | nanomolar range | – | –
NC(=O)c1cccc2cn(-c3ccc([C@@H]4CCCNC4)cc3)nc12 [niraparib] | nanomolar range | – | –
